Source: paper PMC7566913, “Dual Gene Delivery Reagents From Antiproliferative Alkylphospholipids for Combined Antitumor Therapy” (Frontiers in Chemistry, 2020)
Read-outs that look alike come from different tables or passages of the source.

Tests used:
16HBE cells [1] = system: 16HBE cells; design: method as in Gaillard et al., 2019; conditions: 24 h at 37°C, MTT assay, ref Gaillard et al., 2019; cited from earlier work
[2] = design: method as in Gaillard et al., 2019; conditions: ref Gaillard et al., 2019, cited from earlier work
H292 cells [3] = system: H292 cells; design: method as in Gaillard et al., 2019; conditions: H292, 24 h at 37°C, MTT assay; ref Gaillard et al., 2019; cited from earlier work
A549 cells [4] = system: A549 cells; design: method as in Gaillard et al., 2019; conditions: A549, 24 h at 37°C, MTT assay; ref Gaillard et al., 2019; cited from earlier work
[5] = design: method as in Gaillard et al., 2019; conditions: pyrene fluorescence; ref Gaillard et al., 2019; cited from earlier work
[6] = design: method as in Gaillard et al., 2019; conditions: lipoplexes with pCMV-Gluc, N/P 3, 1 molar equivalent of DOPE; ref Gaillard et al., 2019; cited from earlier work
sheep RBC [7] = conditions: sheep RBC, 37°C, ref Gaillard et al., 2019, cited from earlier work
H292 cells [8] = experiment: Cytotoxicity, MTT assay, H292; type: cell-based, human
Procedure: (§1) The cells were exposed for a 24-h period to increasing concentration of the pro-APLs, ranging from 500 nM to 1 mM, and cell viability was assessed using the MTT colorimetric assay (Mosmann, [1983]). For the three cell lines, viability decreased in a dose-dependent manner in response to APLs and pro-APLs (Supplementary Figures 2–4). Using the best-fit regression curve method, the IC50 value (concentration that provokes 50% inhibition of the cell growth) was calculated for each compound (Table 4). The three cell lines responded to the compounds with varying sensitivities. […] This is attributed to enzyme-mediated hydrolysis of the pro-APL compounds in the complemented culture medium or in the intracellular compartment, competing with pure pH-controlled chemical hydrolysis. According to its structure, a pro-APL may or not be a substrate for specific lipases and, thus, may or not be hydrolyzed into the parent cytotoxic compound. […]
(§2) At confluency, cells were released […]
(§3) Cells were seeded into 96-well plates (Becton-Dickinson) at the required density (vide supra) in 100 µL of serum containing culture medium. […]
(§4) Mitochondrial activity measurements (MTT assay) was used to assess cytotoxicity of the compounds.
(§5) Lipid samples were prepared from a lipid film (3.6 µmol of compound evaporated from an ethanolic solution) hydrated with aqueous glucose 5 % and vigorously vortexed for 20 s before serial dilution in aqueous glucose 5 %. For addition of lipid samples to cell culture, part of the culture medium in the culture plates prepared the day before (25 µL) was removed and replaced by lipid samples (25 µL). Negative control was obtained by adding glucose 5 % to the cells instead of lipoplexes.
(§6) After a 24-h incubation period at 37 °C, culture supernatant was removed, cells were carefully washed with PBS and MTT (100 µL, 0.5 mg/mL) in complete culture medium was added. After a 1-h incubation period at 37 °C, the MTT sol ution was removed and DMSO (100 µL) was added to lyse cells and dissolve reduced MTT. Intensity of MTT reduction was then evaluated by measuring absorbance at 492 nm. Viability of cells treated with lipids or lipoplexes was expressed as the percentage of the absorbance measured in untreated cells. Value for each sample is the mean of triplicate determinations (± SD). IC50 values were determined within the 95 % confidence interval using nonlinear regression analysis with the GraphPad Prism software (GraphPad Software, San […]
(§7) All data are representative of a triplicate determination and are presented as the mean ± SD.
(§8) Statistical significance between treatments was assessed by one-way analysis of variance (ANOVA) followed by the Dunnett multiple comparison test, using the Kaleidagraph 4.5 software (Synergy Software, Reading, PA, USA). Data were considered as statistically significant for p value less than

[9] = Particle size and zeta potential of lipoplexes by DLS; type: physicochemical; conditions: lipoplexes with pCMV-Gluc, 25 °C, 5 % glucose, N/P 3, 1 molar equivalent of DOPE
Excerpt: The capacity of the pro-APLs to interact electrostatically with nucleic acids and form lipoplexes was checked by standard agarose gel electrophoresis. […] The size (hydrodynamic diameter) and charge (zeta potential, ζ) of the lipoplexes prepared at an N/P ratio of 3 with one molar equivalent of dioleoyl-sn-glycero-3-phosphatidylethanolamine (DOPE), a lipid with fusogenic properties (Hui et al., [1996]; Zuhorn et al., [2005]), were investigated by DLS (Supplementary Table 1).
as measured by DLS. Lipoplexes were prepared at 25 °C, in 5 % glucose, at a N/P ratio of 3 and with
1 molar equivalent of DOPE.
(Gaillard et al., 2019). Data are the mean of three independent measurements (± SD).

[10] = CMC/CAC by pyrene fluorescent probe technique in ultrapure water; type: physicochemical; conditions: pyrene fluorescence
Procedure: The pro-APL molecules have been specifically engineered so they can be metabolized in situ under a biological stimulus to revert to the parent APL with antiproliferative activity. […] We thus aimed to determine the self-assembly properties of the APL prodrugs. […] Pyrene is a probe which fluorescence is sensitive to the polarity of the solubilizing medium. […] Fluorescence measurements were carried out in ultrapure water and data obtained for the various APLs and their prodrugs are shown in Table 2.
Pro-APLs Self-Assembly Properties
Starting from a lipid film, compounds were […]

[11] = Hydrolytic stability of the APL prodrugs monitored by 31P-NMR; type: physicochemical
Excerpt: Aqueous formulation of the APL prodrugs produces nanosized lipid aggregates that most likely enter cells through the endocytosis pathway. To produce the expected intrinsic antineoplastic effect, APL-derived phosphotriesters need to be processed into the bioactive parent APLs. The hydrolysis of the prodrugs may be under the control of a chemical stimulus, e.g., a pH decrease as observed during the maturation of endosomes, or of degradation enzymes that massively enter the endosome compartment when continuing to lysosomes. To get some information on the transformation of pro-APLs into APLs, we monitored the hydrolysis of these compounds over time, at pH 7.4 and 4.5, conditions that mimick the extracellular milieu and the environment of the late endosome, respectively. This monitoring was realized using ^31P-NMR spectroscopy, according to a previously reported method (Pierrat et al., [2013b]). Whatever the compound investigated, only one single ^31P resonance did appear during the course of the experiments, corresponding to that of the parent APL. This confirmed that hydrolysis of the pro-APLs selectively occurred at the acetal center. […] As a general trend, hydrolysis of the pro-APLs was […] under neutral conditions (i.e., pH 7.4) than under acidic ones (i.e., pH 4.5). […] Besides, substitution of one hydrogen atom with a methyl group on the acetal bridge accelerated the rate of hydrolysis of the prodrugs. […] Indeed, in biological media, the enzyme-mediated hydrolysis of such compounds can proceed far quicker than “simple” chemical hydrolysis under pH control (Pierrat et al., [2012]). […]

16HBE cells [12] = experiment: Cytotoxicity, MTT assay, 16HBE; type: cell-based, human; conditions: 24 h at 37°C
Procedure: as §1, §2, §3, §4, §5, §6, §7, §8

A549 cells [13] = experiment: Cytotoxicity, MTT assay, A549; type: cell-based, human; conditions: A549, 24 h at 37°C
Procedure: as §1, §2, §3, §4, §5, §6, §7, §8

sheep RBC [14] = experiment: Hemolytic activity, red blood cell leakage assay; conditions: 37°C
Procedure: To evaluate this hypothesis, the hemolytic activity of the APLs and pro-APLs was measured. Sheep RBC were incubated for 1 h with escalating doses of aqueous dispersion of the compounds at 37°C. At the end of the incubation period, hemoglobin leakage was determined spectrophotometrically.
Thus, in order to better characterize the hemolytic effect of the pro-APLs, the incubation period has been extended and release of hemoglobin was measured after 24 h.
Red blood cell (RBC) leakage assay was carried out according to a previously described procedure
(Evans et al, 2013). RBC were prepared from defibrinated sheep blood. Briefly, blood sample (5 mL) was centrifuged at 500 x g for 5 min. After removal of the yellow upper layer, an equal volume of

[15] = Homo sapiens, NCI-H292, H292, 24 h at 37°C

Compound | Particle size of lipoplexes [9] [nm] | CMC (APLs) / CAC (pro-APLs) [10] [µM] | H120 (hydrolysis rate after a 120-h incubation period) ([11]; pH 4.5) [%] | H120 (hydrolysis rate after a 120-h incubation period) ([11]; pH 7.4) [%] | IC50 (H292 cells [8]; [15]) [µM] | IC50 (16HBE cells [12]; Homo sapiens) [µM] | IC50 (A549 cells [13]; Homo sapiens) [µM] | further results
CCCCCCCC/C=C\CCCCCCCCCCCCOP(=O)(OCCC[N+](C)(C)C)OCOC(=O)OCCCCCCCCCCCC (stereo not shown) [EC12] | – | – | – | – | – | – | – | IC50 (16HBE cells [1]): 252 ± 112 µM; H120 (hydrolysis rate after a 120-h incubation period) ([2]; pH 4.5): 1%; H120 (hydrolysis rate after a 120-h incubation period) ([2]; pH 7.4): 8%; IC50 (H292 cells [3]): 167 ± 56 µM; IC50 (A549 cells [4]): 161 ± 21 µM; CMC (APLs) / CAC (pro-APLs) [5]: 1.2 ± 0.2 µM; Particle size of lipoplexes [6]: 117 ± 15 nm; HA200 (hemolytic activity at 200 μM) (sheep RBC [7]; 1 h): < 1%; HA200 (hemolytic activity at 200 μM) (sheep RBC [7]; 24 h): 9.6 ± 2.3%
3-((((((Dodecyloxy)carbonyl)oxy)methoxy)(hexadecyloxy)phosphoryl)oxy)-N,N,N-trimethylpropan-1- aminium chloride [MC12] | 186 ± 48 | 4.1 ± 2.5 | 3 | 11 | – | – | – | IC50 (H292 cells [8]; H292, 24 h at 37°C): 81 ± 29 µM; IC50 (16HBE cells [12]): 62 ± 15 µM; IC50 (A549 cells [13]): 151 ± 42 µM
CCCCCCCC/C=C\CCCCCCCCOP(=O)(OCCC[N+](C)(C)C)OCOC(=O)OCCCCCCCCCCCC.[Cl-] (stereo not shown) [PC18:1, 3-((((((Dodecyloxy)carbonyl)oxy)methoxy)(oleyloxy)phosphoryl)oxy)-N,N,N-trimethylpropan-1-aminium chloride] | 489 ± 130 | 2.3 ± 1.0 | – | – | 186 ± 42 | 207 ± 49 | 273 ± 69 | –
CCCCCCCCCCCCCCCCOP(=O)(OCCCCCCCCCCCC)OCC[N+](C)(C)C (stereo not shown) [Compound M12, 2-(((Dodecyloxy)(hexadecyloxy)phosphoryl)oxy)-N,N,N-trimethylethan-1-aminium triflate] | 121 ± 13 | 1.1 ± 0.6 | 0 | 0 | 56 ± 7 | 107 ± 14 | 46 ± 11 | HA200 (hemolytic activity at 200 μM) (sheep RBC [14]; 1 h): 13.1 ± 1.0%; HA200 (hemolytic activity at 200 μM) (sheep RBC [14]; 24 h): 63.9 ± 8.1%; Hydrolytic stability after extended incubation ([11]; pH 7.4 and pH 4.5, 31 days at 25°C): fully stable
